Assay results reported in patent US7138493B1, “ATP-binding cassette protein responsible for cytotoxin resistance” (The United States of America as represented by the …, priority 1998, dated 2006).

Tests used:
[1] = tested on: cells that overexpress MXR1; assay: Drug resistance of cells that overexpress MXR1; assay type: cell-based
Text: These include mitoxantrone, several anthracyclines, rhodamine, daunomycin, SN-38 (the active metabolite of CPT-11), topotecan, and bisantrene. To identify compounds that can reverse the effect of ABCP overexpression, the concentration of drug that inhibits the proliferation of resistant cells by 50% (IC50) can be measured by an assay in the presence and absence of putative inhibitors. Compounds that cause a significant decrease in the IC50 will represent inhibitors and be characterized further.
These include mitoxantrone, several anthracyclines, rhodamine, daunomycin, SN-38 (the active metabolite of CPT-11), topotecan, and bisantrene. To identify compounds that can reverse the effect of MXR1 overexpression, the concentration of drug that inhibits the proliferation of resistant cells by 50% (IC50) will be measured in the presence and absence of putative inhibitors. Compounds that cause a significant decrease in the IC50 will represent inhibitors and be characterized further. For example, S1-M1-80 cells can be incubated in media containing 30 micromolar (IC10) of mitoxantrone and the proliferation of the cells measured by sulforhodamine staining after 96 hours with and without the addition of various potential inhibitors, as a screening assay. Next, for compounds that have potential activity, a formal calculation of the IC50 can be made by incubating the cells in a range of concentrations, diluting 3-fold from 3 mM, again, with and without the inhibitor in question. […] In the absence of a reversal agent, the IC50 is 100 micromolar for the S1M1-80 cells. Compounds that lower the IC50 for mitoxantrone can be tested for their ability to also lower the IC50 for other MXR1-transporting drugs such as adriamycin, topotecan, or bisantrene.

S1-M1-80 cells = assay: Proliferation of mitoxantrone resistant cells measured by sulforhodamine staining; assay type: cell-based, human
Procedure: The cells are then contacted with a toxic chemotherapy drug, such as mitoxantrone or daunomycin, in an amount that permits cell survival due to the resistance conferred by the ATP-binding cassette protein. The amount used is preferably from about 30 μM to about 3 mM. The cells are exposed to the drug for a time that is preferably from about 48 hours to about 96 hours. Cell growth is measured for these cells based on sulforhodamine staining measurement. Alternatively, cell growth can be monitored by vital stains, metabolite measurements or counting cell divisions.
One specific way to measure cell viability is by a calorimetric assay (Skehan et al., Natl. Cancer Inst. 82: 1117–1121 (1990)). […] The number of viable cells can then be determined by measuring the OD at 570 nm. Alternatively, viability of cells can be measured by counting cells with a cell counter or by incorporation of tritiated thymidine.
These include mitoxantrone, several anthracyclines, rhodamine, daunomycin, SN-38 (the active metabolite of CPT-11), topotecan, and bisantrene. […] For example, S1-M1-80 cells can be incubated in media containing 30 micromolar (IC10) of mitoxantrone and the proliferation of the cells measured by sulforhodamine staining after 96 hours with and without the addition of various potential inhibitors, as a screening assay. […]

Molecule: CCc1c2c(nc3ccc(O)cc13)-c1cc3c(c(=O)n1C2)COC(=O)[C@]3(O)CC [SN-38]
- resistance of cells that overexpress MXR1 to the drug [1]: resistant

Molecule: C(=N\NC1=NCCN1)/c1c2ccccc2c(/C=N/NC2=NCCN2)c2ccccc12 [bisantrene]
- resistance of cells that overexpress MXR1 to the drug [1]: resistant

Molecule: COc1cccc2c1C(=O)c1c(O)c3c(c(O)c1C2=O)C[C@@](O)(C(C)=O)C[C@@H]3O[C@H]1C[C@H](N)[C@H](O)[C@H](C)O1 [daunomycin]
- resistance of cells that overexpress MXR1 to the drug [1]: resistant

Molecule: O=C1c2c(O)ccc(O)c2C(=O)c2c(NCCNCCO)ccc(NCCNCCO)c21 [mitoxantrone]
- IC50 (S1-M1-80 cells; Homo sapiens, S1-M1-80, S1M1-80 cells, in the absence of a reversal agent, read-out: IC50 (concentration of drug that inhibits the proliferation of resistant cells by 50%)): 100 µM
- IC10 (S1-M1-80 cells; S1-M1-80 cells, concentration in media for the screening assay, 96 hours): 30 µM
- resistance of cells that overexpress MXR1 to the drug [1]: resistant

Molecule: CC[C@@]1(O)C(=O)OCc2c1cc1n(c2=O)Cc2cc3c(CN(C)C)c(O)ccc3nc2-1 [topotecan]
- resistance of cells that overexpress MXR1 to the drug [1]: resistant

Molecule: rhodamine
- resistance of cells that overexpress MXR1 to the drug [1]: resistant
